System: carbachol precontracted guinea-pig isolated trachea
Test: In-vitro functional assay: relaxation of carbachol precontracted guinea-pig isolated trachea by PDE-IV inhibitors with or without MRA preincubation
Conditions: for Potentiation of relaxant activity by preincubation with C No. 66: C No. 66 at 1 nM before contraction with carbachol
Description: Guinea Pigs (400-600 gm) were procured and trachea was removed under anesthesia (sodium pentobarbital, 300 mg/kg i.p) and immediately kept in ice-cold Krebs Henseleit buffer. Indomethacin (10 uM) was present throughout the KH buffer to prevent the formation of bronchoactive prostanoids.
The tissue of adherent fascia was removed and cut into strips of equal size (with approx. 4-5 tracheal rings in each strip). The epithelium was removed by careful rubbing, minimizing damage to the smooth muscle. […] Opposite ends of the cut rings were tied with the help of a thread. The tissue was mounted in isolated tissue baths containing 10 ml Krebs Henseleit buffer maintained at 37° C. and bubbled with carbogen, at a basal tension of 1 gm. The buffer was changed 4-5 times for about an hour. Equilibration of the tissue was done for 1 hr for stabilization. After 1 hr, the tissue was challenged with 1 μM carbachol. This was repeated after every 2-3 washes till two similar consecutive responses were obtained. At the end of stabilization, the tissues were incubated with suboptimal dose of MRA/Vehicle for 20 minutes prior to contraction of the tissues with 1 μM carbachol. The relaxant activity of the PDE-IV inhibitor [10^−9M to 10^−4 M] on the stabilized developed tension/response was subsequently assessed. The contractile response of tissues was recorded either on Powerlab data acquisition system or on Grass polygraph (Model 7). The relaxation was expressed as percentage of maximum carbachol response and EC25 was calculated as the concentration producing 25% of the maximum relaxation to 1 μM carbachol. The percent relaxation between the treated and control tissues were compared using non-parametric unpaired t-test. A p value of <0.05 is considered to be statistically significant.

[1] = PDE-IV inhibitor alone, concentration producing 25% of the maximum relaxation to 1 μM carbachol
[2] = relaxation by the PDE-IV inhibitor in the presence of C No. 66 (1 nM preincubation), 1 μM carbachol

SMILES	Potentiation of relaxant activity by preincubation with C No. 66	- Log[EC25] [1]	EC25 [1] [µM]	- Log[EC25] [2]
COc1ccc(C2=NO[C@]3(CCOC3)C2)cc1OC1CCCC1 [Compound No. 124aa, (S)-3-[3-(cyclopentyloxy)-4-methoxyphenyl]-1,7-dioxa-2-azaspiro[4.4]non-2-ene]	potentiated	4.40	41.8	5.53
O=C(Nc1c(Cl)cncc1Cl)c1ccc(OC(F)F)c(OCC2CC2)c1 [Roflumilast]	potentiated	4.46	44.2	6.25
COc1ccc(C2CNC(=O)C2)cc1OC1CCCC1 (centres unmarked) [Rolipram]	no significant potentiation	5.25	7.6	–

— patent US20090221664A1, “PHARMACEUTICAL COMPOSITIONS OF MUSCARINIC RECEPTOR ANTAGONISTS” (priority 2005, published 2009)
